According to US8912178B2, “mTOR selective kinase inhibitors” (Xcovery Holdings Company, LLC, priority 2010, dated 2014):

Experiments:
PI3Kβ = target: T1, PI3Kβ (Homo sapiens, UniProt P42338); assay: Kinase competition binding assay (Ambit Biosciences), PI3Kβ; conditions: tested at Ambit Biosciences; read-out: IC50 against PI3Kβ
T1 construct: purchased Ambit Biosciences (contract assay)
Experimental: (§1) Assays are performed as described in Fabian et al. (2005) Nature Biotechnology, vol. 23, p. 329 and in Karaman et al. (2008) Nature Biotechnology, vol. 26, p. 127.
(§2) Kinase assays. For most assays, kinase-tagged T7 phage strains are grown in parallel in 24-well blocks in an E. coli host derived from the BL21 strain. E. coli are grown to log-phase and are infected with T7 phage from a frozen stock (multiplicity of infection˜0.1) and are incubated with shaking at 32° C. until lysis (˜90 minutes). The lysates are centrifuged (6,000×g) and filtered ([…]) to remove cell debris. The remaining kinases are produced in HEK-293 cells and subsequently tagged with DNA for qPCR detection. Streptavidin-coated magnetic beads are treated with biotinylated small molecule ligands for 30 minutes at room temperature to generate affinity resins for kinase assays. The liganded beads are blocked with excess biotin and washed with blocking buffer (SeaBlock (Pierce), 1% BSA, 0.05% Tween 20, 1 mM DTT) to remove unbound ligand and to reduce non-specific phage binding. Binding reactions are assembled by combining kinases, liganded affinity beads, and test compounds in 1× binding buffer (20% SeaBlock, 0.17×PBS, 0.05% Tween 20, 6 mM DTT). Test compounds are prepared as 40× stocks in 100% DMSO and directly diluted into the assay. All reactions are performed in polypropylene 384-well plates in a final volume of 0.04 ml. The assay plates are incubated at room temperature with shaking for 1 hour and the affinity beads are washed with wash buffer (1×PBS, 0.05% Tween 20). The beads are then re-suspended in elution buffer (1×PBS, 0.05% Tween 20, 0.5 mM non-biotinylated affinity ligand) and are incubated at room temperature with shaking for 30 minutes. The kinase concentration in the eluates is measured by qPCR.
(§3) Compounds were tested using the above assay at Ambit Biosciences (San Diego, Calif., USA).

PI3Kα = target: T2, PI3Kα (Homo sapiens, UniProt P42336); assay: Kinase competition binding assay (Ambit Biosciences), PI3Kα; conditions: tested at Ambit Biosciences; read-out: IC50 against PI3Kα
T2 construct: purchased Ambit Biosciences (contract assay)
T2 sequence (P42336 whole entry): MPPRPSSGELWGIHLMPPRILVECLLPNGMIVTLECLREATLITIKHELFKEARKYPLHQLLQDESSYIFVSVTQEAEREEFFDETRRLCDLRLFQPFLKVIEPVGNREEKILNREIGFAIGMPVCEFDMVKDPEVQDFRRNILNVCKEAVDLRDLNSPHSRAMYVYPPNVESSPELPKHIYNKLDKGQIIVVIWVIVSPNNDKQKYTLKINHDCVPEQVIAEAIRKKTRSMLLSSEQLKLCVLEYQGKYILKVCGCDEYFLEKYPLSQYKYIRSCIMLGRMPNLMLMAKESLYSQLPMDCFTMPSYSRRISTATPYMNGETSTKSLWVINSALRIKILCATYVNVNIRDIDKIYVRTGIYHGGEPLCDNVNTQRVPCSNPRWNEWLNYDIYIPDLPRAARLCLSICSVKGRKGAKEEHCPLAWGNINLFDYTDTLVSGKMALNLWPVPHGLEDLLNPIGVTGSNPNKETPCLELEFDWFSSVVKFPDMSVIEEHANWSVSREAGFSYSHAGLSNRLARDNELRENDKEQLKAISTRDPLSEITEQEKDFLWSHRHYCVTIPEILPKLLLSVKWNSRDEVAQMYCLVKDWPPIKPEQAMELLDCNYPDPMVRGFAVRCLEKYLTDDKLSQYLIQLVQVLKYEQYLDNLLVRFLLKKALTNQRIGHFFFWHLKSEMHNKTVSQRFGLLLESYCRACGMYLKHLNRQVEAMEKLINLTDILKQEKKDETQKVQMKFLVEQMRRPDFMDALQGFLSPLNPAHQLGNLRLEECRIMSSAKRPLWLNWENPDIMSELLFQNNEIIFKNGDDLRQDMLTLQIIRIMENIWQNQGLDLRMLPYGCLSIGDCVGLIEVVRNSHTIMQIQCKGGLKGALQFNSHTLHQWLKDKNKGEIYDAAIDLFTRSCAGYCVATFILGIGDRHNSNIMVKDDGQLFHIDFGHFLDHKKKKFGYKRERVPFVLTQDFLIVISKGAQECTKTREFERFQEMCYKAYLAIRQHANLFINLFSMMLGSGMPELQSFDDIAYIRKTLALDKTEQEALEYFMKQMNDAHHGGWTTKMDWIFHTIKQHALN
Experimental: as §1, §2, §3

U87-MG cells = assay: Proliferation assay (Alamar blue), U87-MG; assay type: cell-based; conditions: Homo sapiens, U-87 MG, 48 h, 46-h incubation + 2-h Alamar blue, read-out: IC50 against proliferation of U87-MG cells
Experimental: (§4) Cells (U87-MG, A375, HeLa, A549, MCF7, and MCF7 ADR-res) are cultured in DMEM with 10% fetal bovine serum and streptomycin/penicillin. Solutions of the test compounds (1 μL) are spotted onto a 96-well culture plate, followed by addition of cells (1×10^4) in 100 μL. After 46-h incubation, 10 μL of Alamar blue reagent is added to each well. After 2-h, the excitation/emission wavelengths at 544/590 nm are measured using Fluostar.

mTOR = target: T3, mTOR (Homo sapiens, UniProt P42345); assay: Kinase competition binding assay (Ambit Biosciences), mTOR; conditions: tested at Ambit Biosciences; read-out: IC50 against mTOR
T3 construct: purchased Ambit Biosciences (contract assay)
Experimental: as §1, §2, §3

A549 cells = assay: Proliferation assay (Alamar blue), A549; assay type: cell-based; conditions: Homo sapiens, 48 h; A549, 46-h incubation + 2-h Alamar blue; read-out: IC50 against proliferation of A549 cells
Experimental: as §4

PI3Kγ = target: T4, PI3Kγ (Homo sapiens, UniProt P48736); assay: Kinase competition binding assay (Ambit Biosciences), PI3Kγ; conditions: tested at Ambit Biosciences; read-out: IC50 against PI3Kγ
T4 construct: purchased Ambit Biosciences (contract assay)
T4 sequence (P48736 whole entry): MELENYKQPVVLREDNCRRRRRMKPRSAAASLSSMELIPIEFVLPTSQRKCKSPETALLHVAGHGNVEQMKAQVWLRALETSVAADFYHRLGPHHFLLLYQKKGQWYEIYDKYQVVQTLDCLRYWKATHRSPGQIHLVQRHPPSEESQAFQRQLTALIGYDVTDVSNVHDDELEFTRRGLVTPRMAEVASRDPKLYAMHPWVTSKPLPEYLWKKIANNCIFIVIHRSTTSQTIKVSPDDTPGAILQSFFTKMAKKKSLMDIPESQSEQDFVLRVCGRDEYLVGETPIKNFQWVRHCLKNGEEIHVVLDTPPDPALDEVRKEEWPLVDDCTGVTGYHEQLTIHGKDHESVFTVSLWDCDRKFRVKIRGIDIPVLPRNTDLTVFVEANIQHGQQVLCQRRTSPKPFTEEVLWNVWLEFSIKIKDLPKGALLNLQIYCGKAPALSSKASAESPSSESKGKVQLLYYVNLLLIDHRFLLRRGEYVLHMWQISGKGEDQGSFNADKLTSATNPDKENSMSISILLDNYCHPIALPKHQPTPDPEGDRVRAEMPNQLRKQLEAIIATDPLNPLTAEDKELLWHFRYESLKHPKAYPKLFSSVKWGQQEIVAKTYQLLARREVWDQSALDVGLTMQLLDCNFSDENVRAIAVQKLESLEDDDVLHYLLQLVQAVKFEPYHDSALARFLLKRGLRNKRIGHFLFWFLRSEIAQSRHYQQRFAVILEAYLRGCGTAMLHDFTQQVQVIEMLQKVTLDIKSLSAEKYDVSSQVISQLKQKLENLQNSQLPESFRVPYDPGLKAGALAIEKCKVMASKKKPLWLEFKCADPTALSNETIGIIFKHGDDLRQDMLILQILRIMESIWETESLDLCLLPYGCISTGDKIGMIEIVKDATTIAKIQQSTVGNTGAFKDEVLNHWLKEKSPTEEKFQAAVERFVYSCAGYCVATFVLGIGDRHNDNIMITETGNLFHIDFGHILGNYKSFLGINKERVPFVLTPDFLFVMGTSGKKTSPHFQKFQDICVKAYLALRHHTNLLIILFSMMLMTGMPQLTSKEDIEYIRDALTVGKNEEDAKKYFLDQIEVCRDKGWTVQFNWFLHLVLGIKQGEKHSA
Experimental: as §1, §2, §3

PI3Kδ = target: T5, PI3Kδ (Homo sapiens, UniProt O00329); assay: Kinase competition binding assay (Ambit Biosciences), PI3Kδ; conditions: tested at Ambit Biosciences; read-out: IC50 against PI3Kδ
T5 construct: purchased Ambit Biosciences (contract assay)
T5 sequence (O00329 1-1044): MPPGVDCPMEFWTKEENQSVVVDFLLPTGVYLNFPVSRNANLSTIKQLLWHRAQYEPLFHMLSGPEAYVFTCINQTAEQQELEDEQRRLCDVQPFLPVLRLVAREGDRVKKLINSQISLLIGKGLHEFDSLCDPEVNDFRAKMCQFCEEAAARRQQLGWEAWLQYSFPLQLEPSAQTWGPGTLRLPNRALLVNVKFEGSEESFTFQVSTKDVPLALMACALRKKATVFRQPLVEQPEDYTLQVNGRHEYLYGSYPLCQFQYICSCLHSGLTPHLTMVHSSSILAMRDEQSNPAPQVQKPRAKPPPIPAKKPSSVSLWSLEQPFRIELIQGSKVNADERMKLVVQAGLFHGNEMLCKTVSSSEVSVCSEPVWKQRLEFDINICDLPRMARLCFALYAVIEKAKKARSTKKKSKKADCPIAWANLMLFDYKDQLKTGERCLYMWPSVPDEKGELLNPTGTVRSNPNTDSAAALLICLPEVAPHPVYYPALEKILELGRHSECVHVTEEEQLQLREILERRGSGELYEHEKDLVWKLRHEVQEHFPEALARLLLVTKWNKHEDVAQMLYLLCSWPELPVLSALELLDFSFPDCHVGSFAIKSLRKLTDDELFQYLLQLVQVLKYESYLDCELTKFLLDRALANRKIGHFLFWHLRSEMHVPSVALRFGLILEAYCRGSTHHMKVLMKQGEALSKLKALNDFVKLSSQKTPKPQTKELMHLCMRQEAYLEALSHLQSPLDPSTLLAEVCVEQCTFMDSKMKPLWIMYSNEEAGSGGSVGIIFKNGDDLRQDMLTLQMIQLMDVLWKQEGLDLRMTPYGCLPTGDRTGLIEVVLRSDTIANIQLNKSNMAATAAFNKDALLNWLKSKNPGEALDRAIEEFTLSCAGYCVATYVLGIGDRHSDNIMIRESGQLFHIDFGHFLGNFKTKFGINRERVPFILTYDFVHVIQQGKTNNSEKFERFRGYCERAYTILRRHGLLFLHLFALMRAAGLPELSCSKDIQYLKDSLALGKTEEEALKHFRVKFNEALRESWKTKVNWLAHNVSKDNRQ
Experimental: as §1, §2, §3

T1 sequence (P42338 whole entry): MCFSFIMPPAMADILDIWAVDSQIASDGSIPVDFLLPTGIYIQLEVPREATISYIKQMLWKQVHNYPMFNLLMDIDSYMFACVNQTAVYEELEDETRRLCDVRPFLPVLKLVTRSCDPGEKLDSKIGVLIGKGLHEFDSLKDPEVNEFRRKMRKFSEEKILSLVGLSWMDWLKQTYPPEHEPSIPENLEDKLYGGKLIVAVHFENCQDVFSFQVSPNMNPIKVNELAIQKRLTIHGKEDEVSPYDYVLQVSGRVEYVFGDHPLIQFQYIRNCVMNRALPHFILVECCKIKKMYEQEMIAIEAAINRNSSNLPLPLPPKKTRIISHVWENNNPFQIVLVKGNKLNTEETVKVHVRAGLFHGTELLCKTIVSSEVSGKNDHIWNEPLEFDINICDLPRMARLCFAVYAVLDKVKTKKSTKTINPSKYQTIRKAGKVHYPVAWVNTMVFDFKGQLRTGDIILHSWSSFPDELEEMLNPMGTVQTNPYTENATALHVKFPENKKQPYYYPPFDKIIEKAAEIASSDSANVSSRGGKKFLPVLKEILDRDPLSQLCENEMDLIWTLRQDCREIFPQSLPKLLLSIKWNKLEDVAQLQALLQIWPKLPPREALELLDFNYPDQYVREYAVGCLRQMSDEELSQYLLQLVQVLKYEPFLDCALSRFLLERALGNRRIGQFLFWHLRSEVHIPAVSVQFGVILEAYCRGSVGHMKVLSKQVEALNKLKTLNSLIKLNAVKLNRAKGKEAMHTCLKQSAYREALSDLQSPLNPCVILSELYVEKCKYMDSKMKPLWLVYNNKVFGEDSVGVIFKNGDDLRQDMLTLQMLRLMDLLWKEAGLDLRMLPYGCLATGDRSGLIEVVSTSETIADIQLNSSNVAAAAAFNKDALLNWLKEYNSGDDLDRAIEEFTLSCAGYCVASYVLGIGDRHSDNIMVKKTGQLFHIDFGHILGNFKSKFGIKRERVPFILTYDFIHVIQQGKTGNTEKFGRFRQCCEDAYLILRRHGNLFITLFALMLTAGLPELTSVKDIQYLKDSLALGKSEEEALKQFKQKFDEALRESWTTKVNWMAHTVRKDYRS

IC50 (PI3Kβ) | IC50 (PI3Kα) | IC50 (U87-MG cells) | IC50 (mTOR) | IC50 (A549 cells) | IC50 (PI3Kγ) | IC50 (PI3Kδ) | SMILES
> 100 nM | > 100 nM | < 1000 nM | < 110 nM | < 1000 nM | > 100 nM | > 100 nM | CCNC(=O)Nc1ccc(-c2nc(N3CCOCC3)nc3c2cnn3CC(C)(C)O)cc1 [Example 1, 1-ethyl-3-[4-[1-(2-hydroxy-2-methyl-propyl)-6-morpholino-pyrazolo[3,4-d]pyrimidin-4-yl]phenyl]urea]
> 100 nM | > 100 nM | < 1000 nM | < 110 nM | < 1000 nM | > 100 nM | > 100 nM | CNC(=O)Nc1ccc(-c2nc(N3CCOCC3)nc3c2cnn3CC(C)(C)O)cc1 [Example 2, 1-[4-[1-(2-hydroxy-2-methyl-propyl)-6-morpholino-pyrazolo[3,4-d]pyrimidin-4-yl]phenyl]-3-methyl-urea]
> 100 nM | > 100 nM | – | < 110 nM | – | > 100 nM | > 100 nM | CNC(=O)Nc1ccc(-c2nc(N3CCOCC3)nc3c2cnn3C(C)C)cc1 [Example 3, 1-[4-(1-isopropyl-6-morpholino-pyrazolo[3,4-d]pyrimidin-4-yl)phenyl]-3-methyl-urea]
> 100 nM | > 100 nM | – | < 110 nM | – | > 100 nM | > 100 nM | CNC(=O)Nc1ccc(-c2nc(N3CCOCC3)nc3c2cnn3C2CCN(C(=O)OC)CC2)cc1 [Example 6, methyl 4-[4-[4-(methylcarbamoylamino)phenyl]-6-morpholino-pyrazolo[3,4-d]pyrimidin-1-yl]piperidine-1-carboxylate]
– | – | < 1000 nM | – | < 1000 nM | – | – | CNC(=O)Nc1ccc(-c2nc(N3CCOCC3)nc3c2cnn3C2CCN(C(=O)CO)CC2)cc1 [Example 9, 1-[4-[1-[1-(2-hydroxyacetyl)-4-piperidyl]-6-morpholino-pyrazolo[3,4-d]pyrimidin-4-yl]phenyl]-3-methyl-urea]
– | – | < 1000 nM | – | < 1000 nM | – | – | CNC(=O)Nc1ccc(-c2nc(N3CCOCC3)nc3c2cnn3C2CCN(C(=O)[C@H](C)O)CC2)cc1 [Example 10, 1-[4-[1-[1-[(2S)-2-hydroxypropanoyl]-4-piperidyl]-6-morpholino-pyrazolo[3,4-d]pyrimidin-4-yl]phenyl]-3-methylurea]
– | – | < 1000 nM | – | < 1000 nM | – | – | CNC(=O)Nc1ccc(-c2nc(N3CCOCC3)nc3c2cnn3C2CCN(C(=O)COC)CC2)cc1 [Example 11, 1-[4-[1-[1-(2-methoxyacetyl)-4-piperidyl]-6-morpholino-pyrazolo[3,4-d]pyrimidin-4-yl]phenyl]-3-methyl-urea]
> 100 nM | > 100 nM | < 1000 nM | < 110 nM | < 1000 nM | > 100 nM | > 100 nM | CNC(=O)Nc1ccc(-c2nc(N3CCOCC3)nc3c2cnn3C2CCOCC2)cc1 [Example 13, 1-methyl-3-[4-(6-morpholino-1-tetrahydropyran-4-yl-pyrazolo[3,4-d]pyrimidin-4-yl)phenyl]urea]
– | – | < 1000 nM | – | < 1000 nM | – | – | CNC(=O)Nc1ccc(-c2nc(N3CC4CCC(C3)O4)nc3c2cnn3C2CCOCC2)cc1 [Example 14, 1-methyl-3-[4-[6-(8-oxa-3-azabicyclo[3.2.1]octan-3-yl)-1-tetrahydropyran-4-yl-pyrazolo[3,4-d]pyrimidin-4-yl]phenyl]urea]
> 100 nM | > 100 nM | < 1000 nM | < 110 nM | < 1000 nM | > 100 nM | > 100 nM | CNC(=O)Nc1ccc(-c2nc(N3CCOC[C@@H]3C)nc3c2cnn3C2CCOCC2)cc1 [Example 15, 1-methyl-3-[4-[6-[(3S)-3-methylmorpholin-4-yl]-1-tetrahydropyran-4-yl-pyrazolo[3,4-d]pyrimidin-4-yl]phenyl]urea]
> 100 nM | > 100 nM | – | < 110 nM | – | > 100 nM | > 100 nM | CNC(=O)Nc1ccc(-c2nc(N3CCOC[C@@H]3C)nc3c2cnn3CC(C)(C)O)cc1 [Example 16, N-{4-[6-((3S)-3-methylmorpholin-4-yl)-1-(2-hydroxy-2-methylpropyl)pyrazolo[4,5-e]pyrimidin-4-yl]phenyl}(methylamino)carboxamide]
> 100 nM | > 100 nM | – | < 110 nM | – | > 100 nM | > 100 nM | CNC(=O)Nc1ccc(-c2nc(N3CCOC[C@H]3C)nc3c2cnn3CC(C)(C)O)cc1 [Example 17, N-{4-[6-((3R)-3-methylmorpholin-4-yl)-1-(2-hydroxy-2-methylpropyl)pyrazolo[4,5-e]pyrimidin-4-yl]phenyl}(methylamino)carboxamide]
– | – | < 1000 nM | – | < 1000 nM | – | – | CNC(=O)Nc1ccc(-c2nc(N3CCOCC3)nc3c2cnn3C2CCC(CO)CC2)cc1 (stereo not shown) [Example 20, N-(4-{1-[4-(hydroxymethyl)cyclohexyl]-6-morpholin-4-ylpyrazolo[4,5-e]pyrimidin-4-yl}phenyl)(methylamino)carboxamide]
– | – | < 1000 nM | – | < 1000 nM | – | – | CNC(=O)Nc1ccc(-c2nc(N3CCOCC3)nc3c2cnn3C2CCC(O)CC2)cc1 (stereo not shown) [Example 22, N-{4-[1-(4-hydroxycyclohexyl)-6-morpholin-4-ylpyrazolo[4,5-e]pyrimidin-4-yl]phenyl}(methylamino)carboxamide]
– | – | < 1000 nM | – | < 1000 nM | – | – | CNC(=O)Nc1ccc(-c2nc(N3CCOCC3)nc3c2cnn3C2CCCC2)cc1 [Example 24, N-[4-(1-cyclopentyl-6-morpholin-4-ylpyrazolo[4,5-e]pyrimidin-4-yl)phenyl](methylamino)carboxamide]

SMILES | IC50 (PI3Kβ) | IC50 (PI3Kα) | IC50 (U87-MG cells) | IC50 (mTOR) | IC50 (A549 cells) | IC50 (PI3Kγ) | IC50 (PI3Kδ)
CNC(=O)Nc1ccc(-c2nc(N3CCOC[C@@H]3C)nc3c2cnn3C2CCCC2)cc1 [Example 25, N-{4-[6-((3S)-3-methylmorpholin-4-yl)-1-cyclopentylpyrazolo[4,5-e]pyrimidin-4-yl]phenyl}(methylamino)carboxamide] | – | – | < 1000 nM | – | < 1000 nM | – | –
